The values that follow come from US20140206682A1, “COMPOUNDS AND COMPOSITIONS AS PDGFR KINASE INHIBITORS” (NOVARTIS PHARMACEUTICALS UK LIMITED, priority 2011, published 2014).

The first assay concerns PDGFR. In words: Rat A10 cell proliferation assay. The assay is classed as cell-based. As to conditions: Table 1; Rat A10 cells, recombinant rat PDGF-BB, CellTiter-Glo after 68 hours. As for the experimental part: Compounds of Formula (I) provided herein were assayed to measure their capacity to inhibit c-kit and PDGFR kinases using the appropriate assay described below: c-Kit inhibition was evaluated using the Mo7e cell proliferation assay, and PDGFR inhibition was evaluated using the Rat A10 cell proliferation assay and the Human TG/HA-VSMC cell proliferation assay.
Rat A10 cells (ATCC) were resuspended in DMEM supplemented with 1% FBS and 10 ng/mL recombinant rat PDGF-BB at 20,000 cells/mL. The cells were aliquoted into 384 well plates at 50 μL/well and incubated for 4 hours at 37° C. 0.5 μL of test compound 3-fold serially diluted in DMSO was added to each well. The plates were returned to the incubator for a further 68 hours. 25 μL of CellTiter-Glo (Promega) was added to each well and the plates were incubated on the bench for 15 minutes. Luminescence was then read using a CLIPR CCD camera (Molecular Devices).
For orientation: In ATP-based viability assays light output follows the ATP content of the culture.
Regarding `O=C(N[C@@H]1c2ccccc2OC[C@@H]1O)c1ccc(F)c(NC(=O)c2cnc3ccccn23)c1` (racemic) [F34, N-(2-fluoro-5-{[(3R,4R)-3-hydroxy-3,4-dihydro-2H-1-benzopyran-4-yl]carbamoyl}phenyl)imidazo[1,2-a]pyridine-3-carboxamide], the IC50 is 195 nM.
In the case of `CN(C)CCCOc1ccc(-c2ccn3c(C(=O)Nc4cc(C(=O)N[C@H]5Cc6ccccc6[C@H]5O)ccc4F)cnc3c2)cn1` (stereo in doubt) [F32, 7-{6-[3-(dimethylamino)propoxy]pyridin-3-yl}-N-(2-fluoro-5-{[(1R,2S)-1-hydroxy-2,3-dihydro-1H-inden-2-yl]carbamoyl}phenyl)imidazo[1,2-a]pyridine-3-carboxamide], the half-maximal inhibitory concentration (IC50) stood at 44 nM.
Take `Cc1ccc2ncc(C(=O)Nc3cc(C(=O)N[C@@H]4c5cc(Cl)ccc5C[C@@H]4O)ccc3F)n2c1` (stereo in doubt) [F33, N-(5-{[(1R,2S)-6-chloro-2-hydroxy-2,3-dihydro-1H-inden-1-yl]carbamoyl}-2-fluorophenyl)-6-methylimidazo[1,2-a]pyridine-3-carboxamide]: the IC50 was found to be 163 nM.
Turning to `Cc1ccc(C(=O)NC(CO)Cc2ccccc2)cc1NC(=O)c1cnc2ccccn12` (centres unmarked) [F1, N-{5-[(1-hydroxy-3-phenylpropan-2-yl)carbamoyl]-2-methylphenyl}imidazo[1,2-a]pyridine-3-carboxamide], the IC50 was 82 nM.
Consider `Cc1ccc(C(=O)NC(CO)c2ccccc2)cc1NC(=O)c1cnc2ccccn12` (centres unmarked) [F2, N-{5-[(2-hydroxy-1-phenylethyl)carbamoyl]-2-methylphenyl}imidazo[1,2-a]pyridine-3-carboxamide], for which the IC50 amounted to 146 nM.
With `Cc1ccc(C(=O)NC(CO)C(C)C)cc1NC(=O)c1cnc2ccccn12` (centres unmarked) [F3, N-{5-[(1-hydroxy-3-methylbutan-2-yl)carbamoyl]-2-methylphenyl}imidazo[1,2-a]pyridine-3-carboxamide], the IC50 came to 175 nM.
For the molecule `O=C(NC(CO)c1ccccc1)c1ccc(F)c(NC(=O)c2cnc3ccccn23)c1` (centres unmarked) [F4, N-{2-fluoro-5-[(2-hydroxy-1-phenylethyl)carbamoyl]phenyl}imidazo[1,2-a]pyridine-3-carboxamide], the IC50 was determined as 89 nM.
On the same count and under the same terms, with `O=C(N[C@@H]1c2ccccc2C[C@@H]1O)c1ccc(F)c(NC(=O)c2cnc3ccccn23)c1` [F5, N-(2-fluoro-5-{[(1R,2S)-2-hydroxy-2,3-dihydro-1H-inden-1-yl]carbamoyl}phenyl)imidazo[1,2-a]pyridine-3-carboxamide] the figure was 35 nM; with `O=C(N[C@H]1c2ccccc2C[C@H]1O)c1ccc(F)c(NC(=O)c2cnc3ccccn23)c1` [F6, N-(2-fluoro-5-{[(1S,2R)-2-hydroxy-2,3-dihydro-1H-inden-1-yl]carbamoyl}phenyl)imidazo[1,2-a]pyridine-3-carboxamide], 86 nM.
On the same count and under the same terms, with `O=C(N[C@@H]1c2ccccc2C[C@H]1O)c1ccc(F)c(NC(=O)c2cnc3ccccn23)c1` [F7, N-(2-fluoro-5-{[(1R,2R)-2-hydroxy-2,3-dihydro-1H-inden-1-yl]carbamoyl}phenyl)imidazo[1,2-a]pyridine-3-carboxamide] the figure was 138 nM; with `O=C(N[C@H]1c2ccccc2C[C@@H]1O)c1ccc(F)c(NC(=O)c2cnc3ccccn23)c1` [F8, N-(2-fluoro-5-{[(1S,2S)-2-hydroxy-2,3-dihydro-1H-inden-1-yl]carbamoyl}phenyl)imidazo[1,2-a]pyridine-3-carboxamide], 38 nM.
Turning to `O=C(N[C@H]1CCCC[C@@H]1O)c1ccc(F)c(NC(=O)c2cnc3ccccn23)c1` [F9, N-(2-fluoro-5-{[(1S,2S)-2-hydroxycyclohexyl]carbamoyl}phenyl)imidazo[1,2-a]pyridine-3-carboxamide], the half-inhibitory concentration (IC50) stood at 70 nM.
As to `O=C(NC1Cc2ccccc2C1O)c1ccc(F)c(NC(=O)c2cnc3cc(Br)ccn23)c1` (centres unmarked) [F10, 7-bromo-N-{2-fluoro-5-[(1-hydroxy-2,3-dihydro-1H-inden-2-yl)carbamoyl]phenyl}imidazo[1,2-a]pyridine-3-carboxamide], the IC50 stood at 130 nM.
Same read-out and setting: then `O=C(N[C@@H]1CCCC[C@@H]1O)c1ccc(F)c(NC(=O)c2cnc3ccccn23)c1` [F11, N-(2-fluoro-5-{[(1R,2S)-2-hydroxycyclohexyl]carbamoyl}phenyl)imidazo[1,2-a]pyridine-3-carboxamide], with 199 nM.

The assay is the same for the next values; noted with them: Table 2; Rat A10 cells, recombinant rat PDGF-BB, CellTiter-Glo after 68 hours.
As for `O=C(N[C@@H]1c2ccccc2C[C@@H]1O)c1ccc(F)c(NC(=O)c2cnc3cc(C(F)(F)F)ccn23)c1` (stereo in doubt) [F40, N-(2-fluoro-5-{[(1R,2S)-2-hydroxy-2,3-dihydro-1H-inden-1-yl]carbamoyl}phenyl)-7-(trifluoromethyl)imidazo[1,2-a]pyridine-3-carboxamide], the IC50 came to 261 nM.
In the case of `Cc1ccc2ncc(C(=O)Nc3cc(C(=O)N[C@@H]4c5ccc(Cl)cc5C[C@@H]4O)ccc3F)n2c1` (stereo in doubt) [F41, N-(5-{[(1R,2S)-5-chloro-2-hydroxy-2,3-dihydro-1H-inden-1-yl]carbamoyl}-2-fluorophenyl)-6-methylimidazo[1,2-a]pyridine-3-carboxamide], the IC50 was 272 nM.
The same measure, in the same setting: then `O=C(N[C@@H]1c2cc(Cl)ccc2C[C@@H]1O)c1ccc(F)c(NC(=O)c2cnc3ccc(F)cn23)c1` (stereo in doubt) [F42, N-(5-{[(1R,2S)-6-chloro-2-hydroxy-2,3-dihydro-1H-inden-1-yl]carbamoyl}-2-fluorophenyl)-6-fluoroimidazo[1,2-a]pyridine-3-carboxamide], with 277 nM.
`O=C(NC1CCCC[C@H]1CO)c1ccc(F)c(NC(=O)c2cnc3ccccn23)c1` (stereo in doubt) [F43, N-(2-fluoro-5-{[(1R,2R)-2-(hydroxymethyl)cyclohexyl]carbamoyl}phenyl)imidazo[1,2-a]pyridine-3-carboxamide]: the IC50 turned out to be 294 nM.
As to `O=C(NC(CO)c1ccccc1)c1cccc(NC(=O)c2cnc3ccccn23)c1` (stereo in doubt) [F44, N-(3-{[(1S)-2-hydroxy-1-phenylethyl]carbamoyl}phenyl)imidazo[1,2-a]pyridine-3-carboxamide], the IC50 is 311 nM.
As for `COc1ccc2c(c1)[C@@H](NC(=O)c1ccc(F)c(NC(=O)c3cnc4ccc(C)cn34)c1)[C@@H](O)C2` (stereo in doubt) [F45, N-(2-fluoro-5-{[(1R,2S)-2-hydroxy-6-methoxy-2,3-dihydro-1H-inden-1-yl]carbamoyl}phenyl)-6-methylimidazo[1,2-a]pyridine-3-carboxamide], the IC50 was 345 nM.
Still for that read-out and setting: then `O=C(N[C@H]1Cc2ccccc2[C@H]1O)c1ccc(F)c(NC(=O)c2cnc3ccccn23)c1` (stereo in doubt) [F46, N-(2-fluoro-5-{[(1R,2S)-1-hydroxy-2,3-dihydro-1H-inden-2-yl]carbamoyl}phenyl)imidazo[1,2-a]pyridine-3-carboxamide], with 348 nM; and `O=C(N[C@@H]1c2ccccc2C[C@@H]1O)c1cccc(NC(=O)c2cnc3ccccn23)c1` (stereo in doubt) [F47, N-(3-{[(1R,2S)-2-hydroxy-2,3-dihydro-1H-inden-1-yl]carbamoyl}phenyl)imidazo[1,2-a]pyridine-3-carboxamide], with 356 nM; and `O=C(N[C@@H]1c2ccccc2C[C@@H]1O)c1ccc(F)c(NC(=O)c2cnc3ccc(N4CCOCC4)cn23)c1` (stereo in doubt) [F54, N-(2-fluoro-5-{[(1R,2S)-2-hydroxy-2,3-dihydro-1H-inden-1-yl]carbamoyl}phenyl)-6-(morpholin-4-yl)imidazo[1,2-a]pyridine-3-carboxamide], with 477 nM.
In the case of `O=C(N[C@@H]1c2ccccc2C[C@@H]1O)c1ccc(F)c(NC(=O)c2cnc3ccc(C(F)(F)F)cn23)c1` (stereo in doubt) [F58, N-(2-fluoro-5-{[(1R,2S)-2-hydroxy-2,3-dihydro-1H-inden-1-yl]carbamoyl}phenyl)-6-(trifluoromethyl)imidazo[1,2-a]pyridine-3-carboxamide], the IC50 came out at 584 nM.
For `O=C(N[C@@H]1c2ccccc2C[C@@H]1O)c1ccc(F)c(NC(=O)c2cnc3ccc(COCC(F)(F)F)cn23)c1` (stereo in doubt) [F61, N-(2-fluoro-5-{[(1R,2S)-2-hydroxy-2,3-dihydro-1H-inden-1-yl]carbamoyl}phenyl)-6-[(2,2,2-trifluoroethoxy)methyl]imidazo[1,2-a]pyridine-3-carboxamide], the IC50 came to 618 nM.
On to `O=C(N[C@H]1CCCC1O)c1ccc(F)c(NC(=O)c2cnc3ccccn23)c1` (stereo in doubt) [F62, N-(2-fluoro-5-{[(1S,2S)-2-hydroxycyclopentyl]carbamoyl}phenyl)imidazo[1,2-a]pyridine-3-carboxamide], for which the IC50 was 684 nM.
Regarding `O=C(N[C@@H]1CCC[C@@H]1O)c1ccc(F)c(NC(=O)c2cnc3ccccn23)c1` (stereo in doubt) [F66, N-(2-fluoro-5-{[(1R,2S)-2-hydroxycyclopentyl]carbamoyl}phenyl)imidazo[1,2-a]pyridine-3-carboxamide], the half-maximal inhibitory concentration (IC50) is 1180 nM.
In the case of `O=C(N[C@H]1CCCCC1O)c1cccc(NC(=O)c2cnc3ccccn23)c1` (stereo in doubt) [F67, N-(3-{[(1S,2S)-2-hydroxycyclohexyl]carbamoyl}phenyl)imidazo[1,2-a]pyridine-3-carboxamide], the IC50 was found to be 1360 nM.
In the case of `O=C(N[C@@H]1c2ccccc2C[C@@H]1O)c1ccc(F)c(NC(=O)c2cnc3ccc(-n4ccnc4)cn23)c1` (stereo in doubt) [F72, N-(2-fluoro-5-{[(1R,2S)-2-hydroxy-2,3-dihydro-1H-inden-1-yl]carbamoyl}phenyl)-6-(1H-imidazol-1-yl)imidazo[1,2-a]pyridine-3-carboxamide], the concentration for half-maximal inhibition (IC50) amounted to 2860 nM.

A word on the IC50: it is the concentration at which inhibition is half-maximal.
